Assay results reported in patent US20070020203A1, “Skin care composition” (priority 2005, published 2007).

Target: Mushroom Tyrosinase (Agaricus bisporus, UniProt C7FF04)
Experiment: Comparative tyrosinase inhibitory activity (dopachrome optical density at 475 nm)
Assay type: biochemical
Experimental: All measurements were performed at room temperature (24 C) with a Beckman Coulter DU-640 spectrophotometer at a scan speed of 1200 nm/min with a spectral range from 300 to 700 nm.
Buffer solution • KH2PO4 99.8% & KOH 85+% (pH 7.4, 100 mM) • Mol. Wt. 136.09, VWR and Sigma-Aldrich • KH2PO4 (1362 mg) dissolved in distilled water (100 ml) and pH adjusted to 7.4 with a 2 M KOH solution • 2. Mushroom Tyrosinase solution (240 units per 1 ml) • 2440 units/mg, Sigma-Aldrich • Tyrosinase (2.5 mg) dissolved in 25 ml of distilled water • 3. L-DOPA solution (6.3 mM) • Mol. Wt. 197, Sigma-Aldrich • 33.1 mg are dissolved in distilled water (25 ml) • 4. L-Tyrosine solution (1.3 mM) • Mol. Wt. 181.2, Sigma-Aldrich • 23.5 mg are dissolved in distilled water (100 ml) • 5. Hydrogen peroxide solution (5 mM) • Sigma-Aldrich • 1/100 of 0.9/25 vol. dilution of a 50% wt. solution b) Skin Lightening Ingredients • 5. Emblica™ antioxidant (5 mM)—Lot # CA0106007 • Average Mol. Wt. 729, EMD Chemicals / Merck KGaA • Emblica (18.2 mg) dissolved in distilled water (5 ml) • 6. […]
The stock solutions were added in an orderly manner with quantities according to Table 1 as to obtain a final total volume of 3.0 ml for each preparation. […] After 15 min of reaction time, the spectra were recorded between 300 and 700 nm and the optical density at 475 nm (Dopachrome) measured.

Mushroom Tyrosinase, sequence (C7FF04 1-392): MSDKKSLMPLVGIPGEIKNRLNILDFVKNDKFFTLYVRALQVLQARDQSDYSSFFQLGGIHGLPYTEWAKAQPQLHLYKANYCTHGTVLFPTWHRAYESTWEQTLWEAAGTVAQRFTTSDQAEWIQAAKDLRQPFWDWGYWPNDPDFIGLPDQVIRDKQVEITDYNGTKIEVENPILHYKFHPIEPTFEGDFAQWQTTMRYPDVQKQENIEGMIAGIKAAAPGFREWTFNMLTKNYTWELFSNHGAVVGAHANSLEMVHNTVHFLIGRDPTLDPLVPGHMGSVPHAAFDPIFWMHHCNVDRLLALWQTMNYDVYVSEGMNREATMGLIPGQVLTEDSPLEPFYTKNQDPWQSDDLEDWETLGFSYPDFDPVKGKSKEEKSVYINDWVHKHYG
Mushroom Tyrosinase, sequence (G1K3P4 entry or part of it, further chain): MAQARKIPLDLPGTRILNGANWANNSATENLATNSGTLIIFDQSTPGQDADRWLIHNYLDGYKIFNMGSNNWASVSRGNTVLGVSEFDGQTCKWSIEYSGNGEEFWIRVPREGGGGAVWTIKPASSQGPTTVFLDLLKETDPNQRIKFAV

Oc1ccc(O)cc1 [Hydroquinone]
inhibitory activity against tyrosinase (in words) (DOPA as substrate): less effective
inhibitory activity against tyrosinase (in words) (tyrosine used as a substrate): excellent inhibitory activity
